Measured values published in patent US20240041042A1, “1-(PYRIDYL)-5-AZINYLPYRAZOLE DERIVATIVES, AND THEIR USE FOR CONTROL OF UNDESIRED PLANT GROWTH” (Bayer Aktiengesellschaft, priority 2020, published 2024).
Like-named read-outs stand apart in the source and are kept apart here.

Assays:
Format in all cases: in vivo
[1] = system: Alopecurus myosuroides (ALOMY); experiment: Pre-emergence herbicidal action against ALOMY; conditions: scored visually after about 3 weeks, 100% = plants have died
Excerpt: (§1) Seeds of monocotyledonous and dicotyledonous weed plants and crop plants are placed in plastic or organic planting pots and covered with soil. The compounds of the invention, formulated in the form of wettable powders (WP) or as emulsion concentrates (EC), are then applied to the surface of the covering soil as aqueous suspension or emulsion with addition of 0.5% additive at a water application rate equivalent to 600 l/ha. After the treatment, the pots are placed in a greenhouse and kept under good growth conditions for the trial plants. After about 3 weeks, the effect of the preparations is scored visually in comparison with untreated controls as percentages. For example, 100% activity=the plants have died, 0% activity=like control plants.
(§2) Tables A1 to A13 below show the effects of selected compounds of the general formula (I) on various harmful plants and at an application rate corresponding to 320 g/ha or lower, which were obtained by the experimental procedure mentioned above. The appendices “a”, “b” and “c” give differentiation by dosage used with otherwise the same harmful plants tested.

[2] = system: Amaranthus retroflexus (AMARE); experiment: Pre-emergence herbicidal action against AMARE; conditions: visual scoring after about 3 weeks vs untreated controls
Excerpt: as §1, §2

[3] = system: Avena fatua (AVEFA); experiment: Pre-emergence herbicidal action against AVEFA; conditions: visual scoring after about 3 weeks vs untreated controls
Excerpt: as §1, §2

[4] = system: Echinochloa crus-galli (ECHCG); experiment: Pre-emergence herbicidal action against ECHCG; conditions: dosage 320 g/ha
Excerpt: as §1, §2

[5] = system: Lolium rigidum (LOLRI); experiment: Pre-emergence herbicidal action against LOLRI
Excerpt: as §1, §2

[6] = system: Matricaria inodora (MATIN); experiment: Pre-emergence herbicidal action against MATIN
Excerpt: as §1, §2

[7] = system: Setaria viridis (SETVI); experiment: Pre-emergence herbicidal action against SETVI
Excerpt: as §1, §2

[8] = system: Verconica persica (VERPE); experiment: Pre-emergence herbicidal action against VERPE; conditions: dosage 320 g/ha
Excerpt: as §1, §2

[9] = system: Viola tricolor (VIOTR); experiment: Pre-emergence herbicidal action against VIOTR
Excerpt: as §1, §2

[10] = system: Alopecurus myosuroides (ALOMY); experiment: Post-emergence herbicidal action against ALOMY; conditions: visual rating about 3 weeks after treatment vs untreated controls (100% = plants have died, 0% = like control plants)
Experimental: (§3) Seeds of monocotyledonous and dicotyledonous weeds and crop plants are placed in sandy loam in plastic or organic planting pots, covered with soil and cultivated in a greenhouse under controlled growth conditions. 2 to 3 weeks after sowing, the test plants are treated at the one-leaf stage. The compounds of the invention, formulated in the form of wettable powders (WP) or as emulsion concentrates (EC), are then sprayed onto the green parts of the plants as aqueous suspension or emulsion with addition of 0.5% additive at a water application rate of 600 l/ha (converted). After the test plants have been kept in the greenhouse under optimum growth conditions for about 3 weeks, the activity of the preparations is rated visually in comparison to untreated controls. For example, 100% activity=the plants have died, 0% activity=like control plants.
(§4) Tables B1 to B13 below show the effects of selected compounds of the general formula (I) according to Table 1 on various harmful plants and at an application rate corresponding to 320 g/ha or lower, which were obtained by the experimental procedure mentioned above. The appendices “a”, “b” and “c” give differentiation by dosage used with otherwise the same harmful plants tested.

[11] = system: Amaranthus retroflexus (AMARE); experiment: Post-emergence herbicidal action against AMARE
Experimental: as §3, §4

[12] = system: Avena fatua (AVEFA); experiment: Post-emergence herbicidal action against AVEFA; conditions: visual rating about 3 weeks after treatment
Experimental: as §3, §4

[13] = system: Echinochloa crus-galli (ECHCG); experiment: Post-emergence herbicidal action against ECHCG
Experimental: as §3, §4

[14] = system: Lolium rigidum (LOLRI); experiment: Post-emergence herbicidal action against LOLRI
Experimental: as §3, §4

[15] = system: Pharbitis purpurea (PHBPU); experiment: Post-emergence herbicidal action against PHBPU
Experimental: as §3, §4

[16] = system: Setaria viridis (SETVI); experiment: Post-emergence herbicidal action against SETVI
Experimental: as §3, §4

[17] = system: Verconica persica (VERPE); experiment: Post-emergence herbicidal action against VERPE
Experimental: as §3, §4

[18] = system: Oryza sativa (ORYSA); conditions: crop plant compatibility
Experimental: as §3
(§5) The observed effects on selected crop plants are reported here in comparison to the untreated controls (values in %). The appendices “a”, “b” and “c” give differentiation by dosage used with otherwise the same crop plants tested.

[19] = system: Zea mays (ZEAMX); conditions: for Post-emergence action against ZEAMX in %: crop plant compatibility, effect vs untreated controls
Experimental: as §3, §5

[20] = system: Polygonum convolvulus (POLCO); experiment: Pre-emergence herbicidal action against POLCO
Excerpt: as §1, §2

[21] = system: Abutilon theophrasti (ABUTH); experiment: Post-emergence herbicidal action against ABUTH; conditions: 320 g/ha, visual rating about 3 weeks after treatment vs untreated controls (100% = plants have died, 0% = like control plants)
Experimental: as §3, §4

[22] = system: Polygonum convolvulus (POLCO); experiment: Post-emergence herbicidal action against POLCO; conditions: dosage 320 g/ha
Experimental: as §3, §4

[23] = system: Viola tricolor (VIOTR); experiment: Post-emergence herbicidal action against VIOTR; conditions: 320 g/ha
Experimental: as §3, §4

[24] = 80 g/ha, visual rating about 3 weeks after treatment vs untreated controls (100% = plants have died, 0% = like control plants)
[25] = 80 g/ha, effect in comparison to untreated controls
[26] = 320 g/ha, visual rating about 3 weeks after treatment

SMILES | Pre-emergence action against ALOMY ([1]; 80 g/ha) | Pre-emergence action against ALOMY ([1]; 320 g/ha) | Pre-emergence action against AMARE in % ([2]; 80 g/ha) | Pre-emergence action against AMARE in % ([2]; 320 g/ha) | Pre-emergence action against AVEFA in % ([3]; 320 g/ha) | Pre-emergence action against ECHCG in % [4] | Pre-emergence action against LOLRI in % ([5]; dosage 80 g/ha) | Pre-emergence action against LOLRI in % ([5]; dosage 320 g/ha) | Pre-emergence action against MATIN in % ([6]; dosage 320 g/ha) | Pre-emergence action against SETVI in % ([7]; dosage 320 g/ha) | Pre-emergence action against VERPE in % [8] | Pre-emergence action against VIOTR in % ([9]; 320 g/ha, Viola tricolor) | Pre-emergence action against VIOTR in % ([9]; dosage 80 g/ha) | Post-emergence action against ALOMY in % ([10]; 80 g/ha) | Post-emergence action against AMARE in % [11, 24] | Post-emergence action against AVEFA in % ([12]; 80 g/ha) | Post-emergence action against ECHCG in % ([13]; dosage 80 g/ha) | Post-emergence action against PHBPU in % ([15]; dosage 80 g/ha) | Post-emergence action against ORYSA in % [18, 25] | Pre-emergence action against POLCO in % ([20]; dosage 320 g/ha) | further results
CCOC(=O)[C@@H](C)Oc1nn(-c2ccccn2)c(-c2ccc(F)nc2)c1Br [Example I-91] | 90% | 100% | 90% | 100% | 100% | 100% | 100% | 100% | 90% | 100% | 100% | 100% | 90% | 90% | 90% | 90% | 80% | 80% | 20% | – | Pre-emergence action against SETVI in % ([7]; dosage 80 g/ha): 100%; Post-emergence action against LOLRI in % ([14]; dosage 80 g/ha): 90%; Post-emergence action against SETVI in % ([16]; dosage 80 g/ha): 80%; Post-emergence action against VERPE in % ([17]; dosage 80 g/ha): 80%; Post-emergence action against ORYSA in % ([18]; 20 g/ha, effect vs untreated controls): 0%; Post-emergence action against ZEAMX in % (crop plant compatibility) ([19]; 20 g/ha, ZEAMX, effect in comparison to untreated controls): 20%
C[C@@H](Oc1nn(-c2nc(F)ccc2F)c(-c2ccc(F)nc2)c1Br)C(=O)O [Example I-333] | 90% | 100% | 90% | 100% | 90% | 90% | 80% | 100% | 90% | 90% | 100% | 100% | 100% | 90% | – | 80% | 80% | 80% | 20% | 90% | Pre-emergence action against AVEFA in % ([3]; 80 g/ha): 80%; Pre-emergence action against MATIN in % ([6]; dosage 80 g/ha): 80%; Pre-emergence action against POLCO in % ([20]; dosage 80 g/ha): 90%; Post-emergence action against ABUTH in % [21]: 80%; Post-emergence action against ALOMY in % ([10]; 320 g/ha): 90%; Post-emergence action against AMARE in % [11, 26]: 80%; Post-emergence action against AVEFA in % ([12]; 320 g/ha): 90%; Post-emergence action against ECHCG in % ([13]; dosage 320 g/ha): 90%; Post-emergence action against LOLRI in % ([14]; dosage 320 g/ha): 90%; Post-emergence action against PHBPU in % ([15]; dosage 320 g/ha): 90%; Post-emergence action against POLCO in % [22]: 80%; Post-emergence action against SETVI in % ([16]; dosage 320 g/ha): 80%; Post-emergence action against VERPE in % ([17]; 320 g/ha, VERPE): 90%; Post-emergence action against VIOTR in % [23]: 80%
CCOC(=O)[C@@H](C)Oc1nn(-c2ncccc2F)c(-c2ccc(F)nc2)c1F [Example I-320] | – | 90% | 80% | 90% | 90% | 90% | – | 100% | 80% | 90% | – | 100% | – | – | 80% | – | – | – | 0% | 90% | Post-emergence action against ABUTH in % [21]: 80%; Post-emergence action against ALOMY in % ([10]; 320 g/ha): 100%; Post-emergence action against AMARE in % [11, 26]: 80%; Post-emergence action against AVEFA in % ([12]; 320 g/ha): 80%; Post-emergence action against ECHCG in % ([13]; dosage 320 g/ha): 90%; Post-emergence action against LOLRI in % ([14]; dosage 320 g/ha): 90%; Post-emergence action against PHBPU in % ([15]; dosage 320 g/ha): 80%; Post-emergence action against POLCO in % [22]: 80%; Post-emergence action against SETVI in % ([16]; dosage 320 g/ha): 90%; Post-emergence action against VERPE in % ([17]; 320 g/ha, VERPE): 90%; Post-emergence action against VIOTR in % [23]: 80%; Post-emergence action against ZEAMX in % ([19]; 80 g/ha): 0%; Post-emergence action against ZEAMX in % ([19]; 320 g/ha): 20%
